tested on: anti-PTX monoclonal antibody; assay: PTX analog interference test (cross reaction rate) on the time-resolved fluorescent immunochromatographic test strip; assay type: binding, mouse; conditions: test concentration 100 ng/mL
Experimental: 20 ul of sample is accurately pipetted into 180 ul of sample diluent and mixed fully.
80 uL of sample solution to be tested is accurately pipetted into a test strip loading well with a micropipette, and reaction is carried out at room temperature (20-25° C.) for 15 min. The test strip is inserted into a load carrier of a fluorescence detector, an item to be tested is selected by touching a display screen, a “Detection Start” button is pressed, the fluorescence detector automatically scans the test strip, and a test result is read through the display screen of an instrument or printed.
Quantitative detection: after the test is completed, the instrument obtains the ratio of the time-resolved fluorescent intensity of the detection area on the test strip to the time-resolved fluorescent intensity of the quality control area. Based on a relationship curve of the ratio of the time-resolved fluorescent intensity of the detection area on the pre-built test strip to the time-resolved fluorescent intensity of the quality control area and the concentration of PTX drugs, the content of PTX drug in the sample to be tested is obtained, and finally, the content of the PTX drug in the sample to be tested is obtained by conversion.
The cross reaction rate is measured according to the method of Embodiment 2.
Several analogs of PTX are selected for interference testing.

Row | SMILES | Cross reaction rate [%]
1 | CC(=O)O[C@H]1C(=O)[C@@]2(C)[C@H]([C@H](OC(=O)c3ccccc3)[C@]3(O)C[C@H](OC(=O)[C@H](O)[C@@H](NC(=O)c4ccccc4)c4ccccc4)C(C)=C1C3(C)C)[C@]1(OC(C)=O)CO[C@@H]1C[C@@H]2O [Paclitaxel] | 100

same assay, conditions: test concentration 1,000 ng/mL

Row | SMILES | Cross reaction rate [%]
2 | C/C=C(\C)C(=O)N[C@@H](c1ccccc1)[C@@H](O)C(=O)O[C@H]1C[C@@]2(O)[C@@H](OC(=O)c3ccccc3)[C@@H]3[C@]4(OC(C)=O)CO[C@@H]4C[C@H](O)[C@@]3(C)C(=O)[C@H](OC(C)=O)C(=C1C)C2(C)C [Cephalomannine] | <0.04
3 | CC(=O)OC1CC2(OC(C)=O)C(OC(C)=O)C3C4(CO4)C(O)CC(OC(C)=O)C3(C)C(OC(C)=O)C(OC(C)=O)C(=C1C)C2(C)C (stereo not drawn) [1-Acetoxyl-5-deacetyl-baccatin I] | <0.01
4 | CC(=O)O[C@@]12CO[C@@H]1C[C@H](O)[C@@]1(C)C(=O)[C@H](O)C3=C(C)[C@@H](O)C[C@@](O)([C@@H](OC(=O)c4ccccc4)[C@H]21)C3(C)C [10-Deacetyl-baccatin III] | <0.01
5 | CC(=O)O[C@H]1C(=O)[C@@]2(C)[C@H]([C@H](OC(=O)c3ccccc3)[C@]3(O)C[C@H](O)C(C)=C1C3(C)C)[C@]1(OC(C)=O)CO[C@@H]1C[C@@H]2O [Baccatin III] | <0.01
6 | CC(=O)O[C@H]1C[C@@]2(O)[C@@H](OC(C)=O)[C@@H]3[C@@]4(CO4)[C@@H](OC(C)=O)C[C@H](OC(C)=O)[C@@]3(C)[C@@H](OC(C)=O)[C@H](OC(C)=O)C(=C1C)C2(C)C [1-Hydroxybaccatin I] | <0.01
7 | CC(=O)OC1CC2(O)C(OC(=O)c3ccccc3)C3C4(OC(C)=O)COC4CC(O)C3(C)C(O)C(OC(C)=O)C(=C1C)C2(C)C (stereo not drawn) [13-Acetyl-9-dihydrobaccatin III] | <0.01
8 | CC(=O)O[C@@]12CO[C@@H]1C[C@H](O)[C@@]1(C)C(=O)[C@H](O)C3=C(C)[C@@H](OC(=O)[C@H](O)[C@@H](NC(=O)OC(C)(C)C)c4ccccc4)C[C@@](O)([C@@H](OC(=O)c4ccccc4)[C@H]21)C3(C)C [Docetaxel] | <1
9 | CC(=O)O[C@H]1C(=O)[C@]2(C)[C@@H](O[C@@H]3OC[C@@H](O)[C@H](O)[C@H]3O)C[C@H]3OC[C@@]3(OC(C)=O)[C@H]2[C@H](OC(=O)c2ccccc2)[C@]2(O)C[C@H](OC(=O)[C@H](O)[C@@H](NC(=O)c3ccccc3)c3ccccc3)C(C)=C1C2(C)C [7-Xylosyltaxol] | <1

Reference: patent publication US11237158B2, “Time-resolved fluorescent immunochromatographic test strip for detecting paclitaxel drugs as well as preparation method and application thereof” (BEIJING DIAGREAT BIOTEC[…]., LTD., priority 2018, dated 2022)
